Laboratory results taken from ChEMBL document CHEMBL1158639, “Synthesis and in vivo evaluation of [11C]MPTQ: a potential PET tracer for alpha2A-adrenergic receptors” (Bioorg Med Chem Lett, 2010).

What was measured:
[1] = Metabolic stability in baboon brain assessed as compound remaining at 4.43 mCi after 90 mins; type: ADME, tissue-based; conditions: papio anubis, read-out: Stability
[2] = Metabolic stability in baboon brain assessed as compound remaining at 4.43 mCi after 30 mins; type: ADME, tissue-based; conditions: papio anubis, read-out: Stability
[3] = target: T1, Alpha-2C adrenergic receptor (Homo sapiens, UniProt P18825); assay: Displacement of [3H]rauwolscine from adrenergic Alpha-2C receptor
T1 sequence (P18825 whole entry): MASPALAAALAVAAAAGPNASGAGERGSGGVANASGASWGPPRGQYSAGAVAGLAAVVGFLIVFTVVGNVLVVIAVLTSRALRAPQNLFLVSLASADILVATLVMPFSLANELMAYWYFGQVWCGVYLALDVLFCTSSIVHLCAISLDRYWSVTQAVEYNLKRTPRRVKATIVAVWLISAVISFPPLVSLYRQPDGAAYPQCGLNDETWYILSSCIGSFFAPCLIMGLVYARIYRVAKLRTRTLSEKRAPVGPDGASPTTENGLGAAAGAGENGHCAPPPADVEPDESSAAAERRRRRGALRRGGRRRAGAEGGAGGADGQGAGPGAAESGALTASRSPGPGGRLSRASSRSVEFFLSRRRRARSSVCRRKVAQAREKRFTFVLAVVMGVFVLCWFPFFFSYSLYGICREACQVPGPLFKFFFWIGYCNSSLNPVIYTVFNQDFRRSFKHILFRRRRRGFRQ

[4] = target: Sodium-dependent serotonin transporter (Homo sapiens, UniProt P31645); assay: Displacement of [3H]paroxetine from 5HTT receptor
Chain of Sodium-dependent serotonin transporter (P31645 whole entry): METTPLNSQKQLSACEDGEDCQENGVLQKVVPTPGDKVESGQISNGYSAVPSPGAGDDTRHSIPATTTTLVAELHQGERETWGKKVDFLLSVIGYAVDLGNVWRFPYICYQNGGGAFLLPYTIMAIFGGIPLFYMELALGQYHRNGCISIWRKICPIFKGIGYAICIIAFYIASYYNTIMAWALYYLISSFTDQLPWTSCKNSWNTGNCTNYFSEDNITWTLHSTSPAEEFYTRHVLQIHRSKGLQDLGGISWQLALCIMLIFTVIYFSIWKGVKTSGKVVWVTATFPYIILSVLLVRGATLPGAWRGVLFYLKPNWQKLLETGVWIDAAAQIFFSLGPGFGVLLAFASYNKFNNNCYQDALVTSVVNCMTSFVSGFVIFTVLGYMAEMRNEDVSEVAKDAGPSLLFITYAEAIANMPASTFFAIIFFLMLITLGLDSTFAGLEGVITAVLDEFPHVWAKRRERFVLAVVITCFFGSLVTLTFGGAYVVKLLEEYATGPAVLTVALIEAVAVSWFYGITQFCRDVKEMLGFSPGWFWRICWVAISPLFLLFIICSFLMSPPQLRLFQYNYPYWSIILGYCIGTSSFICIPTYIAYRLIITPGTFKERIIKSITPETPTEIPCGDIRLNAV

Row | remaining at 1.5 h [1] | remaining at 0.5 h [2] | Ki [3] | Ki [4] | Compound
1 | 21% | 35% | – | – | [11CH3]N1CC2C(=NO[C@H]2CN2CCN(C/C=C/c3ccccc3)CC2)c2ccccc21 (some centres undefined)
2 | – | – | 4.5 nM | 16 nM | CN1CC2C(=NO[C@H]2CN2CCN(C/C=C/c3ccccc3)CC2)c2ccccc21 (some centres undefined)
